Measurements as given in patent US10172954B2, “Use of a reverse-micellar system for delivering chelators of radionuclides and metals” (priority 2014, dated 2019).

Key:
[1] = oral delivery; DTPA highly polar at neutral pH; cited from earlier work
[2] = Pu decorporation in rats contaminated i.v. with plutonium citrate, chronic intrarectal treatment, liver and femur alpha activity; conditions: cumulative CaNa3DTPA doses 44.3 to 307.6 μmol/kg, rectal, treatment from D+4

SMILES | absorbed when delivered orally [1] [%] | efficacy of decorporation in liver or bone Pu deposits as a function of cumulative dose [2]
O=C(O)CN(CCN(CC(=O)O)CC(=O)O)CCN(CC(=O)O)CC(=O)O [DTPA, diethylene triaminopentaacetic acid] | < 10 | 
O=C([O-])CN(CCN(CC(=O)[O-])CC(=O)[O-])CCN(CC(=O)[O-])CC(=O)[O-].[Ca+2].[Na+].[Na+].[Na+] [CaNa3DTPA, pentetate calcium trisodium] |  | proportional to the administered dose cumulative
